Laboratory results taken from patent publication US20220323385A1, “PHARMACEUTICAL COMPOSITION FOR AORTIC ANEURYSM PROPHYLAXIS AND PROCESSED FOOD” (priority 2019, published 2022).

Test system: abdominal aortic aneurysm
Experiment: rat abdominal aortic aneurysm induction model (catheter inserted in abdominal aorta and ligated, high-fat feed)
Type: in vivo, SD-male rats
Details: for Occurrence not confirmed (abdominal aortic aneurysm) / Occurrence confirmed (abdominal aortic aneurysm): number of rats; for Rupture rate (%) of abdominal aortic aneurysm: rats with observed abdominal aortic aneurysms; for Rupture rate (%) of abdominal aortic aneurysm / Frequency of occurrence (%) (Table 4, Rupture rate of abdominal aortic aneurysm): control group 28.6%; for survival rate (%): Example 2, FIG. 1; for diameter of the aorta in the abdominal aortic aneurysm induction part: Example 2, FIG. 2, control group about 4 mm; for Occurrence not confirmed (Table 4, Rupture rate of abdominal aortic aneurysm): rupture not observed; for Frequency of occurrence (%) (Table 4, Rupture rate of abdominal aortic aneurysm): rupture rate in rats with observed abdominal aortic aneurysms
Procedure: SD-male rats of 4 weeks old (70 g to 90 g) were used. Eighteen rats and eight rats were prepared as a control group and a medium chain fatty acid administration group, respectively.
Upon arrival, all rats were preliminarily fed normal feed without additional supplements for one week. Then, the medium chain fatty acid administration group was fed normal feed and forcibly administered with high-content neutral fats (decanoic acid occupied 98% of constituent fatty acids) in an amount of 1,145 mg/kg body-weight/day. The control group was fed normal feed and forcibly administered with water in an amount of 1,145 mg/kg body-weight/day.
In this test, the medium chain fatty acid was fed in the form of tricaprin. Tricaprin is a substance in which decanoic acid (C10), a linear saturated fatty acid having 10 carbon atoms, is bonded to glycerol.
From the second week after the arrival, all rats were fed high-fat feed. Then, the medium chain fatty acid administration group was forcibly administered with the high-content neutral fats in an amount of 1,145 mg/kg body-weight/day. Furthermore, the control group was forcibly administered with water in an amount of 1,145 mg/kg body-weight/day.
Three weeks after the arrival, an abdominal aortic aneurysm induction treatment was performed. In the abdominal aortic aneurysm induction treatment, a catheter is inserted in the rat abdominal aorta and the inserted catheter is ligated with the abdominal aorta. The treatment was performed according to the method disclosed in Patent Literature 3.
After that, for the next four weeks, the control group had been fed the high-fat feed and forcibly administered with water in an amount of 1,145 mg/kg body-weight/day. Furthermore, the medium chain fatty acid administration group had been fed the high-fat feed and forcibly administered with the high-content neutral fats. Then, four weeks after the abdominal aortic aneurysm induction treatment, the rats were euthanized and dissected.
Note that the abdominal aortic aneurysm was determined to have occurred if the blood vessel at the site where the abdominal aortic aneurysm induction treatment was performed dilated to twice or more its original thickness.
Next, test results obtained by using tricaprin (an ester of three decanoic acids and glycerol) and tricaprylin (an ester of three octanoic acids of C8 and glycerol) as the medium chain fatty acid is shown. The animal model preparation method is the same as that in Example 1. A group in which tricaprin (C10) was given is referred to as a tricaprin administration group and a group in which tricaprylin (C8) was given is referred to as a tricaprylin administration group.
Twenty-three, eleven, and eighteen model animals were prepared as a control group, the tricaprylin administration group, and the tricaprin administration group, respectively.
The horizontal axis indicates the number of days (day) from Day 0 when the abdominal aortic aneurysm induction treatment was performed, and the vertical axis indicates the survival rate (%). The survival rate declined on Day 17 in the control, while the survival rate remained 100% until Day 26 in the tricaprylin administration group. […] The tricaprin administration group maintained the 100% survival rate during the test period.
Referring to FIG. 2, the horizontal axis indicates which measurements are from the normal blood vessel and which are from the blood vessel at the abdominal aortic aneurysm induction part; the vertical axis indicates the diameter (mm) of the aorta. The normal blood vessel refers to the normal aorta at the upper and lower sides of the part in which the abdominal aortic aneurysm was induced.

[1] = Example 1, number of rats among rats with observed abdominal aortic aneurysms
[2] = Example 2, number of rats among rats with observed abdominal aortic aneurysms
[3] = Example 2, 11 rats tricaprylin group, 18 rats tricaprin group

| Structure (SMILES) | Frequency of occurrence (%) of abdominal aortic aneurysm (Example 1, 1,145 mg/kg body-weight/day, four weeks after induction treatment, control group 38.9%) [%] | Rapture confirmed (abdominal aortic aneurysm) [1] | Rapture not confirmed (abdominal aortic aneurysm) [1] | Occurrence not confirmed (abdominal aortic aneurysm) (Example 1, 8 rats in group, 1,145 mg/kg body-weight/day forcibly administered, four weeks after induction treatment) | Occurrence confirmed (abdominal aortic aneurysm) (Example 1, 8 rats in group, vessel dilated to twice or more its original thickness, 1,145 mg/kg body-weight/day) | Rupture rate (%) of abdominal aortic aneurysm (Example 1, listed as Medium chain fatty acid) [%] | Rupture rate (%) of abdominal aortic aneurysm (Example 1, listed as medium chain fatty acid) [%] | survival rate (%) (during the test period) | diameter of the aorta in the abdominal aortic aneurysm induction part | Frequency of occurrence (%) of abdominal aortic aneurysm (Example 2, control group 30.4%) [%] | Occurrence confirmed (Table 4, Rupture rate of abdominal aortic aneurysm) [2] | Occurrence not confirmed (Table 4, Rupture rate of abdominal aortic aneurysm) [2] | Occurrence confirmed (abdominal aortic aneurysm) [3] | Occurrence not confirmed (abdominal aortic aneurysm) [3] | Frequency of occurrence (%) (Table 4, Rupture rate of abdominal aortic aneurysm) (Example 2) | Frequency of occurrence (%) (Table 4, Rupture rate of abdominal aortic aneurysm) (Example 2, listed as tricaprin) | survival rate (%) (until Day 26 after induction treatment, control declined on Day 17) |
| --- | --- | --- | --- | --- | --- | --- | --- | --- | --- | --- | --- | --- | --- | --- | --- | --- | --- |
| CCCCCCCCCC(=O)OCC(COC(=O)CCCCCCCCC)OC(=O)CCCCCCCCC [Tricaprin] | 12.5 | 0 | 1 | 7 | 1 | 0 | 0.0 | 100 | about 2.2 mm | 5.6 | 0 | 1 | 1 | 17 | 0 | 0.0 |  |
| CCCCCCCC(=O)OCC(COC(=O)CCCCCCC)OC(=O)CCCCCCC [Tricaprylin] |  |  |  |  |  |  |  |  | about 3.5 mm | 27.3 | 1 | 2 | 3 | 8 | 33.3 |  | 100 |
